Experimental data reported in patent US7589092B2, “Prodrugs of heteroaryl compounds” (Koronis Pharmaceuticals, Incorporated, priority 2003, dated 2009).

How the values were obtained:
HIV = settings: Bouchard et al.; cited from earlier work
[1] = deamination product of 5-aza-dC; Momparler et al.; cited from earlier work
[2] = Bioavailability / pharmacokinetic study in dogs; type: in vivo, Canis familiaris; settings: dog
Text: This study tested the bioavailability of different test compounds in dogs, by intravenous or oral gavage administration, at prescribed dose levels. The animals tested in this study were Canis familiaris, from Harlan Sprague Dawley (Indianapolis, Ind.). Four dogs (2 males and 2 females), with an average age of seven months, were included in each test group. The dogs were identified by ear tattoos, and given a fourteen day acclimatization period prior to the commencement of testing. Dogs were group housed but separated by sex. The animal room environment was controlled and monitored daily. The temperature ranged from 18 to 29° C. and the relative humidity ranged from 30%-70%. The photocycle was 12 hours light and 12 hours dark. All animals were submitted to a general physical examination and only those found healthy were admitted for the study. All selected animals were given two days to adjust to laboratory conditions before the study began. Teklad Dog Diet was fed twice daily and water was constantly available to the dogs throughout the acclimatization and study periods. Twenty-four hours prior to the initiation of the study, animals were randomly selected into two groups with 1 male and 1 female in each group. […] Blood was collected from the v. cephalica antebrachii of each of the two animals prior to study initiation, at thirty minutes and at 1, 2, 4, and 12 hours after dosing. […] IV dosages of DHAdC, as well as oral dosages of prodrugs […] C9-DHAdC were recorded. The dogs were administered 50 mg/kg DHAdC or DHAdC equivalent in the case of prodrugs. The maximum concentration (Cmax), clearance (AUC∞), half-life (T1/2), and % Oral Bioavailability were recorded and are presented in Table 2: […]

[3] = Bioavailability / pharmacokinetic study in rats; type: in vivo; settings: rat
Text: This study tested the bioavailability of different test compounds in rats, by oral gavage administration, at prescribed dose levels. The animals tested in this study were Rattus norvegicus, CD strain, from Charles River Canada (Montreal, Canada). Six males were included in each test group. Their weight ranged from 200 to 250 grams before fasting. […] Rats were individually housed in Nalgene rat cages with stainless steel covers. The animal room environment was controlled and monitored daily. The temperature ranged from 18 to 26° C. and the relative humidity ranged from 30%-70%. The photocycle was 12 hours light and 12 hours dark. All animals were submitted to a general physical examination and only those found healthy were admitted for the study. All selected animals were given two days to adjust to laboratory conditions before the study began. Teklad rodent Diet and water were constantly available to the rats throughout the acclimatization and study periods. Forty-eight hours prior to the initiation of the study, animals were randomly selected and two subsets of 3 male rats per group were formed. Due to the large volume of blood taken, collections will be done by alternating timepoints between subsets. All animals were fasted for twelve hours prior to the initiation of the study. […] Blood was collected from the orbital sinus of animals from each group at thirty minutes and at 1, 2, 4, and 12 hours after dosing. At each blood collection time point, three rats per group were bled. […] Oral and IV dosages of DHAdC, as well as oral dosages of prodrugs C7-DHAdC and C9-DHAdC were recorded. The rats were administered 100 mg/kg DHAdC or DHAdC equivalent in the case of prodrugs. The maximum concentration (Cmax), clearance (AUC∞), half-life (T1/2), and % Oral Bioavailability were recorded and are presented in Table 1: […]

[4] = test concentration 100 um, RT, 60 minutes equilibration
Procedure: The compounds were first dissolved in a 60% methanol/40% water (v/v) solution containing 1% DMSO and brought to a concentration of 100 μM. The optimal detection wavelength was determined and calibration studies were performed with the solution. After calibration, the compounds were placed into n-octanol-PBS buffer at pH 7.4 at RT. The mixture was shaken and allowed to equilibrate for 60 minutes. The amount of compound in the PBS buffer phase was then determined by HPLC/UV-Vis. The amount of compound in n-octanol was determined by subtracting […]. This experiment was conducted for three samples. These three samples were then each corrected for volume and the results were averaged. Log D was calculated as the Log10 of the amount of compound in the n-octanol phase divided by the amount of compound in the buffer phase.
Lipophilicity is a major structural factor that influences the pharmacokinetic and pharmacodynamic behavior of compounds. In this assay, prodrugs C7-DHAdC, C8-DHAdC, and C9-DHAdC were partitioned between n-octanol and phosphate buffered saline (PBS).

[5] = oral gavage, 50 mg/kg DHAdC equivalent
[6] = oral gavage, 100 mg/kg DHAdC or DHAdC equivalent
[7] = both sexes, blood, IV, 50 mg/kg DHAdC
[8] = male, CD, blood, IV, 100 mg/kg DHAdC
[9] = male, CD, blood, oral gavage, 100 mg/kg DHAdC or DHAdC equivalent

Compound	AUC∞ [2, 5]	Cmax [2, 5]	Oral bioavailability [2, 5] [%]	T1/2 [2, 5] [h]	AUC∞ [3, 6]	Cmax [3, 6]	Oral bioavailability [3, 6] [%]	T1/2 [3, 6] [h]	log D n-Octanol PBS pH 7.4 [4]	other results
Nc1ncn([C@H]2C[C@H](O)[C@@H](CO)O2)c(=O)n1 [Compound 5-aza-dC, 5-aza-2′-deoxycytidine]										HIV replication in vitro (HIV): inhibit HIV replication in vitro
O=c1ncn([C@H]2C[C@H](O)[C@@H](CO)O2)c(=O)[nH]1 [Compound 5-aza-dU, 5-aza-2′-deoxyuridine]										antineoplastic activity [1]: loss of antineoplastic activity
CCCCCCCOC(=O)NC1=NC(=O)N([C@H]2C[C@H](O)[C@@H](CO)O2)CN1 [Compound C7-DHAdC, N^4-Heptyloxycarbonyl-β-2′-deoxy-5,6-dihydro-5-azacytidine]	59,377 ng-hr/mL	11,282 ng/mL	51	2.1	32,101 ng-hr/mL	5,577 ng/mL	43	3.9	2.04	
NC1=NC(=O)N([C@H]2C[C@H](O)[C@@H](CO)O2)CN1 [DHAdC, 5,6-dihydro-5-aza-2′-deoxycytidine]										AUC(0-inf) [2, 7]: 156000 ng·h/mL; half-life [2, 7]: 2.1 h; Cmax ([2]; both sexes, blood, IV, 50 mg/kg DHAdC, read-out: Cmax): 76300 ng/mL; AUC(0-inf) [3, 8]: 75000 ng·h/mL; half-life [3, 8]: 1.8 h; Cmax ([3]; male, CD, blood, IV, 100 mg/kg DHAdC, read-out: Cmax): 40000 ng/mL; AUC(0-inf) [3, 9]: 8540 ng·h/mL; bioavailability [3, 9]: 11%; half-life [3, 9]: 0.8 h; Cmax ([3]; male, CD, blood, oral gavage, 100 mg/kg DHAdC or DHAdC equivalent, read-out: Cmax): 1860 ng/mL

Now from value to compound, other results behind:

AUC∞ [2, 5]	Cmax [2, 5]	Oral bioavailability [2, 5] [%]	T1/2 [2, 5] [h]	AUC∞ [3, 6]	Cmax [3, 6]	Oral bioavailability [3, 6] [%]	T1/2 [3, 6] [h]	log D n-Octanol PBS pH 7.4 [4]	Compound	other results
17,845 ng-hr/mL	5,172 ng/mL	11	2.8					2.56	CCCCCCCCOC(=O)NC1=NC(=O)N([C@H]2C[C@H](O)[C@@H](CO)O2)CN1 [Compound C8-DHAdC, N^4-Octyloxycarbonyl-β-2′-deoxy-5,6-dihydro-5-azacytidine]	
54,540 ng-hr/mL	8,932 ng/mL	36	2.2	26,472 ng-hr/mL	5,550 ng/mL	35	3.6	3.16	CCCCCCCCCOC(=O)NC1=NC(=O)N([C@H]2C[C@H](O)[C@@H](CO)O2)CN1 [Compound C9-DHAdC, N^4-Nonyloxycarbonyl-β-2′-deoxy-5,6-dihydro-5-azacytidine]	
